Assay results reported in the supplement of paper PMC10331698.
± gives the standard deviation of the averaged measurements.

Legend:
Experiment in all cases: level (log10 ratio to DMSO vehicle control); higher = higher biomarker level / cell amount than vehicle control
Conditions in all cases: in DMSO
[1] = compound: FC(F)(F)C(F)(F)C(F)(F)C(F)(F)C(F)(F)CCI [1-Iodo-1H,1H,2H,2H-perfluoroheptane]
Description: (§1)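 BioMAP Diversity Plus panel of 12 human primary cell co-culture systems (3C, 4H, LPS, SAg, BT, BF4T, BE3C, CASM3C, HDF3CGF, KF3CT, MyoF, Mphg). Compounds were added 1 h before stimulation and left for 24 h (MyoF 48 h; BT 72 h for soluble read-outs or 6 d for IgG). Biomarkers were read by ELISA, cytotoxicity by SRB, PBMC viability and proliferation by Alamar Blue. Each well value was divided by the mean of 8 DMSO control wells on the same plate and log10 transformed; duplicate blinded samples were tested at 4 concentrations.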

[2] = compound: NC(=O)C(F)(F)C(F)(F)C(F)(F)F [Heptafluorobutyramide]
Description: as §1

[3] = compound: FC(F)C(F)(F)COCC1CO1 [((2,2,3,3-Tetrafluoropropoxy)methyl)oxirane]
Description: as §1

[4] = compound: O=C(O)C(F)(F)C(F)(F)C(F)F [4H-Perfluorobutanoic acid]
Description: as §1

[5] = compound: O=C(O)C(F)(F)C(F)(F)C(F)(F)C(F)(F)C(F)(F)C(F)(F)F [Perfluoroheptanoic acid]
Description: as §1

[6] = compound: O=C(O)C(F)(F)OC(F)(F)C(F)(F)OC(F)(F)C(=O)O [Perfluoro-3,6-dioxaoctane-1,8-dioic acid]
Description: as §1

[7] = compound: C=C(C)C(=O)OCCC(F)(F)C(F)(F)C(F)(F)C(F)(F)C(F)(C(F)(F)F)C(F)(F)F [(Perfluoro-5-methylhexyl)ethyl 2-methylprop-2-enoate]
Description: as §1

Row | Test System | level (log10) ([1]; 6700 nM) | level (log10) ([1]; 20000 nM) | level (log10) ([1]; 60000 nM) | level (log10) ([2]; 6700 nM) | level (log10) ([2]; 20000 nM) | level (log10) ([2]; 60000 nM) | level (log10) ([3]; 6700 nM) | level (log10) ([3]; 20000 nM) | level (log10) ([3]; 60000 nM) | level (log10) ([4]; 6700 nM) | level (log10) ([4]; 20000 nM) | level (log10) ([4]; 60000 nM) | level (log10) ([5]; 6700 nM) | level (log10) ([5]; 20000 nM) | level (log10) ([5]; 60000 nM) | level (log10) ([6]; 6700 nM) | level (log10) ([6]; 20000 nM) | level (log10) ([6]; 60000 nM) | level (log10) ([7]; 6700 nM) | level (log10) ([7]; 20000 nM)
1 | BF4T:MMP-1 | -0.001 ± 0.0057 | -0.0015 ± 0.00071 | 0.008 ± 0.013 | 0.0065 ± 0.025 | 0.003 ± 0.031 | 0.003 ± 0.0071 | 0.016 ± 0.0085 | 0.007 ± 0.02 | 0.03 ± 0.021 | -0.0075 ± 0.019 | 0 ± 0.034 | 0.006 ± 0.038 | -0.0005 ± 0.028 | 0.001 ± 0.03 | 0.039 ± 0.051 | 0.0075 ± 0.0064 | 0.007 ± 0.027 | 0.0185 ± 0.032 | -0.0205 ± 0.0021 | -0.0095 ± 0.0021
2 | BT:sIL-17A | -0.269 ± 0.12 | 0.037 ± 0.15 | -0.22 ± 0.067 | -0.0055 ± 0.22 | -0.177 ± 0.22 | 0.058 ± 0.082 | 0.0715 ± 0.032 | -0.008 ± 0.064 | -0.115 ± 0.03 | 0.067 ± 0.13 | -0.085 ± 0.02 | -0.158 ± 0.033 | 0.047 ± 0.027 | 0.0865 ± 0.16 | -0.0095 ± 0.22 | -0.0535 ± 0.049 | 0.154 ± 0.19 | 0.0055 ± 0.047 | -0.19 ± 0.31 | -0.015 ± 0.15
3 | BE3C:CXCL8/IL-8 | 0.0285 ± 0.037 | 0.0605 ± 0.023 | 0.086 ± 0.024 | 0.038 ± 0.0014 | 0.0365 ± 0.012 | 0.038 ± 0.051 | 0.0015 ± 0.00071 | -0.005 ± 0.025 | -0.009 ± 0.021 | 0.015 ± 0.099 | 0.0165 ± 0.044 | 0.0695 ± 0.071 | 0.033 ± 0.041 | 0.008 ± 0.042 | 0.0205 ± 0.1 | -0.0485 ± 0.0092 | -0.0355 ± 0.0078 | 0.007 ± 0.05 | -0.0065 ± 0.0092 | -0.008 ± 0.024
4 | BE3C:HLA-DR | -0.0055 ± 0.0035 | -0.0105 ± 0.0035 | -0.0215 ± 0.0078 | -0.0065 ± 0.005 | 0.0245 ± 0.012 | -0.009 ± 0.0099 | 0.001 ± 0.0099 | -0.0055 ± 0.0035 | -0.07 ± 0.14 | -0.023 | -0.022 ± 0.0085 | -0.0005 ± 0.028 | -0.009 ± 0.0014 | -0.004 ± 0.0014 | 0.002 ± 0.027 | -0.0025 ± 0.00071 | -0.02 ± 0.013 | 0.0085 ± 0.025 | -0.0115 ± 0.0078 | -0.0045 ± 0.0078
5 | 4H:CD87/uPAR | 0.0265 ± 0.018 | 0.0175 ± 0.005 | 0.025 ± 0.03 | 0.048 ± 0.014 | 0.031 ± 0.0014 | 0.0315 ± 0.0092 | -0.013 | -0.0205 ± 0.03 | -0.012 ± 0.0042 | -0.0265 ± 0.025 | -0.0065 ± 0.0035 | -0.004 ± 0.044 | 0.0355 ± 0.042 | -0.007 ± 0.054 | 0.061 ± 0.14 | -0.0095 ± 0.032 | -0.009 ± 0.037 | 0.001 ± 0.011 | 0.0115 ± 0.037 | 0 ± 0.0071
6 | BT:sIL-17F | -0.0855 ± 0.011 | 0.0525 ± 0.033 | -0.0455 ± 0.16 | -0.001 ± 0.035 | -0.0165 ± 0.018 | -0.006 ± 0.03 | -0.0295 ± 0.12 | 0.001 ± 0.13 | 0.0005 ± 0.061 | -0.0445 ± 0.005 | -0.067 ± 0.17 | -0.0165 ± 0.036 | -0.0725 ± 0.13 | -0.023 ± 0.21 | -0.013 ± 0.045 | -0.146 ± 0.0057 | -0.102 ± 0.057 | -0.0675 ± 0.022 | 0.004 ± 0.15 | -0.0015 ± 0.0092
